ChEMBL document CHEMBL1135285, “Synthesis and structure-activity relationships of a novel series of HIV-1 protease inhibitors encompassing ABT-378 (Lopinavir)” (Bioorg Med Chem Lett, 2002)

Legend:
MT4 = experiment: Compound was tested for antiviral activity against HIV-IIIB in MT-4 cells in presence of 50% human serum; type: functional, cell-based
[1] = molecular target: Human immunodeficiency virus type 1 protease (Human immunodeficiency virus 1) (UniProt Q72874); experiment: Inhibition of HIV protease at 0.5 nM

Row | inhibition [1] [%] | Structure (SMILES) | EC50 (MT4) [µM]
1 | 67 | CC(C)[C@H](C(=O)N[C@H](Cc1ccccc1)C[C@@H](O)[C@@H](Cc1ccccc1)NC(=O)COc1ccccc1)N1CCCNC1=O | 1.3
2 | 75 | Cc1ccnc(C)c1OCC(=O)N[C@H](Cc1ccccc1)[C@H](O)C[C@@H](Cc1ccccc1)NC(=O)[C@@H](C(C)C)N1CCCNC1=O | 0.77
3 | 86 | Cc1cc(N)cc(C)c1OCC(=O)N[C@H](Cc1ccccc1)[C@H](O)C[C@@H](Cc1ccccc1)NC(=O)[C@@H](C(C)C)N1CCCNC1=O | 0.16
4 | 90 | Cc1cc(F)cc(C)c1OCC(=O)N[C@H](Cc1ccccc1)[C@H](O)C[C@@H](Cc1ccccc1)NC(=O)[C@@H](C(C)C)N1CCCNC1=O | 0.49
5 | 55 | Cc1cccc(C)c1SCC(=O)N[C@H](Cc1ccccc1)[C@H](O)C[C@@H](Cc1ccccc1)NC(=O)[C@@H](C(C)C)N1CCCNC1=O | 4.1
6 | 38 | COc1cccc(OC)c1OCC(=O)N[C@H](Cc1ccccc1)[C@H](O)C[C@@H](Cc1ccccc1)NC(=O)[C@@H](C(C)C)N1CCCNC1=O | 14
7 | 79 | Cc1ncnc(C)c1OCC(=O)N[C@H](Cc1ccccc1)[C@H](O)C[C@@H](Cc1ccccc1)NC(=O)[C@@H](C(C)C)N1CCCNC1=O | 4.2
8 | – | Cc1cccc(C)c1OCC(=O)N[C@@H](Cc1ccccc1)[C@@H](O)C[C@H](Cc1ccccc1)NC(=O)[C@H](C(C)C)N1CCCNC1=O (single isomer, unassigned) [LOPINAVIR] | 0.1
9 | 70 | Cc1cccc(C)c1CCC(=O)N[C@H](Cc1ccccc1)[C@H](O)C[C@@H](Cc1ccccc1)NC(=O)[C@@H](C(C)C)N1CCCNC1=O | 2.6
10 | 37 | Cc1cc(C)cc(OCC(=O)N[C@H](Cc2ccccc2)[C@H](O)C[C@@H](Cc2ccccc2)NC(=O)[C@@H](C(C)C)N2CCCNC2=O)c1 | 38
11 | 87 | CC(C)[C@H](C(=O)N[C@H](Cc1ccccc1)C[C@@H](O)[C@@H](Cc1ccccc1)NC(=O)COc1c(Cl)cccc1Cl)N1CCCNC1=O | 2.8
12 | 84 | Cc1ccccc1OCC(=O)N[C@H](Cc1ccccc1)[C@H](O)C[C@@H](Cc1ccccc1)NC(=O)[C@@H](C(C)C)N1CCCNC1=O | 0.43
13 | 85 | Cc1cc(C)c(OCC(=O)N[C@H](Cc2ccccc2)[C@H](O)C[C@@H](Cc2ccccc2)NC(=O)[C@@H](C(C)C)N2CCCNC2=O)c(C)c1 | 0.39
